Results taken from patent publication US20120225123A1, “Use of Synergistic Combinations of an Avermectin and an Antineoplastic Compounds for the Treatment of Hematological Malignancies” (UNIVERSITY HEALTH NETWORK, priority 2009, published 2012).

Legend:
[1] = test system: STAT1 and target genes IFIT3, OAS1 and TRIM22 in OCI-AML2 cells; test: Gene expression by Q-RT-PCR, OCI-AML2; format: cell-based, human; conditions: after ivermectin treatment, Q-RT-PCR
Description: Leukemia cells were treated with buffer control or ivermectin (3 μM) for 30 and 40 hours. After treatment, cells were harvested, total RNA was isolated. Total RNA (10 μg) was used for cRNA amplification using the Invitrogen SuperScript kit (Life Technologies, Inc., Burlington, ON, Canada). Amplification and biotin labeling of antisense cRNA was performed using the Enzo® BioArray™ High Yield™ RNA transcript labeling kit (Enzo Diagnostics, Farmingdale, N.Y., USA), according to the manufacturer's instructions. RNA was then hybridized to Affymetrix HG U133 Plus 2.0 gene expression oligonucleotide arrays (Affymetrix, Santa Clara, Calif., USA). Microarray slides were scanned using the GeneArray 2500 scanner (Agilent Technologies). Microarray data were analyzed using GeneSpring GX v10.0 (Agilent), and lists of genes deregulated>2-fold after 30 and 40 hr ivermectin treatment were derived. Pathways and gene ontology analyses were carried out using Ingenuity Pathways Analysis (www.ingenuity.com); and the Database for Annotation, Visualization and Integrated Discovery (DAVID; http://david.abcc.ncifcrf.gov). […]
(§1) Gene expression changes were evaluated in OCI AML2, 0937, HL60, DU145 and PPC-1 cells by real-time Q-RT-PCRas described previously^15, 47. The expression level of STAT1A, STAT1B, TRIM22, OAS1 and IFIT3 before and after incubation of leukemia cells with ivermectin was evaluated.

[2] = test system: U937 and TEX leukemia cells; primary AML cells; test: Reactive oxygen species, Carboxy-H2DCFDA staining, sensitive cells; format: cell-based, human
mice = conditions: oral; cited from earlier work
OCI-AML2 cells [3] = test: Plasma membrane potential, DiBAC4(3) staining, OCI-AML2; format: cell-based, human; conditions: for plasma membrane polarization: 5 hours
Description: (§2) Plasma membrane potential was measured as previously described.^18 Briefly, cells treated with IVM or buffer control in RPM1, chloride replete medium (140 mM sodium chloride, 5 mM potassium chloride, 1 mM magnesium sulfate, 1.8 mM calcium acetate, 10 mM glucose, 10 mM HEPES and 0.1% (wt/v) BSA), or chloride free media where equimolar gluconate salts of sodium and potassium replaced the sodium chloride in the chloride replete medium. After incubation, cells were stained with DiBAC4(3) (final concentration 30 nM) and fluorescence determined by flow cytometry (BD FACS Canto, Becton Dickinson, San Jose, Calif.) (excitation=488 nm, emission=516 nm) Analysis was conducted using FACSDiva Software (BD Biosciences). Calibration curves were prepared using phosphate buffers with varying potassium ion concentrations as previously described.^18

[4] = test system: STAT1 mRNA in U937 and HL60 leukemia cells; test: Gene expression by Q-RT-PCR, U937 and HL60; format: cell-based, human
Description: as §1

[5] = test system: DU145 and PPC-1 cells as well as primary normal hematopoietic cells; test: Plasma membrane potential, DiBAC4(3) staining, resistant cells; format: cell-based, human; conditions: up to 6 μM for up to 24 hours
Description: as §2
(§3) In nematodes, increases in intracellular chloride after IVM treatment cause membrane hyperpolarization. Therefore, the effects of IVM on plasma and mitochondrial membrane polarization was evaluated in leukemia cells. […] At increasing times after incubation, plasma membrane potential was measured by staining cells with DiBAC4(3) and flow cytometric analysis.

[6] = test system: OCI-AML2, K562 and MDAY-D2 leukemia cells in NOD/SCID mice; test: Mouse models of leukemia, subcutaneous tumors, oral ivermectin; format: in vivo
Description: MDAY-D2 murine leukemia cells, and K562 and OCI-AML2 human leukemia cells (2.5×10^5) were injected subcutaneously into both flanks of sub-lethally irradiated (3.5 Gy) NOD/SCID mice (Ontario Cancer
Institute, Toronto, ON). Four (OCI-AML2), five (MDAY-D2), or seven (K562) days after injection, once tumors were palpable, mice were then treated daily for 10 days (K562) or treated with 8 doses over 10 days (OCI-AML2) with IVM (3 mg/kg) by oral gavage in water or vehicle control (n=10 per group). […] Tumor volume (tumor length x width^2×0.5236) was measured three times a week using calipers. Fourteen (MDAY-D2), 15 (OCI-AML2) or 17 (K562) days after injection of cells, mice were sacrificed, tumors excised and the volume and weight of the tumors were measured.
Given the effects of IVM as a potential anti-leukemic agent, IVM was evaluated in mouse models of leukemia. Human leukemia (OCI-AML2 and K562) and murine leukemia (MDAY-D2) cells (MDAY-D2, OCI-AML2 and K562) were injected subcutaneously into the flank of NOD/SCID mice. Four (OCI-AML2), five (MDAY-D2), or seven (K562) days after injection, once tumors were palpable, mice were then treated daily for 10 days (K562) or treated with 8 doses over 10 days (OCI-AML2) with IVM (3 mg/kg) by oral gavage in water or vehicle control (n=10 per group). […] Tumor volume and weight was measured over time.

OCI-AML2 cells [7] = test: Cytosolic calcium, Indo-1 AM staining; format: cell-based, human
Description: Changes in cytosolic calcium concentration were detected with the fluorescent dye, Indo-1 AM (final concentration 6 μM) as previously described. ^17
Plasma membrane hyperpolarization can lead to calcium influx^23. Therefore, the effects of IVM on calcium influx in leukemia cells was tested. OCI-AML2 cells were treated with IVM and the concentration of intracellular calcium was measured by staining cells with the ratiometric dye, Indo-1 AM.

monkeys = conditions: oral; cited from earlier work
[8] = test system: U937 and TEX leukemia cells as well as primary AML cells; test: Plasma membrane potential, DiBAC4(3) staining, sensitive cells; format: cell-based, human; conditions: after ivermectin treatment
Description: as §2, §3

ivermectin
expression of STAT1 and target genes [1]: upregulation of STAT1 and target genes IFIT3, OAS1 and TRIM22
ROS generation ([2]; U937 and TEX cells, 2 hours after treatment): demonstrated increased ROS generation
ROS generation ([2]; primary AML cells): demonstrated increased ROS generation
LD50 (mice): 28 to 30 mg/kg
plasma membrane polarization (OCI-AML2 cells [3]; chloride deplete buffer): caused plasma membrane depolarization
plasma membrane polarization (OCI-AML2 cells [3]; chloride replete buffer): induced plasma membrane hyperpolarization
plasma membrane potential (OCI-AML2 cells [3]; RPMI medium, as early as after 1 hour of treatment): induced membrane hyperpolarization in a dose dependent manner
STAT1 mRNA [4]: demonstrated increased STAT1 mRNA
plasma membrane potential [5]: did not show changes in their plasma membrane potential
tolerability ([6]; MDAY-D2 mice, dosage escalated 3 to 6 mg/kg): well tolerated
decrease in tumor weight and volume compared to buffer control ([6]; oral gavage 3 mg/kg (MDAY-D2 escalated to 6 mg/kg), all 3 models, p<0.05): up to 70%
gross organ toxicity ([6]; oral ivermectin, all 3 models): without any gross organ toxicity
intracellular calcium (OCI-AML2 cells [7]): increased intracellular calcium
LD50 (monkeys): above 24 mg/kg
plasma membrane potential [8]: demonstrated plasma membrane hyperpolarization
